Source: article PMC10744608, “Simplified Synthesis of Renieramycin T Derivatives to Target Cancer Stem Cells via β-Catenin Proteasomal Degradation in Human Lung Cancer” (Marine Drugs, 2023)

Tests used:
Assay type in all cases: cell-based, human
[1] = tested on: BEAS2B cells; assay: MTT cell viability assay, normal cells; conditions: for IC50: BEAS2B normal cells, 24 h treatment, MTT
[2] = tested on: A549 cells; assay: Colony formation assay; conditions: A549, 25 nM, 24 h treatment then 7 days growth
Method: (§1) A clonogenic or colony formation assay was utilized to explore the capability of cancer cells to proliferate from single cells and form tumor colonies in response to DH_32 treatment. A single-cell suspension of NSCLC cells (A549, H23, and H292) was seeded at a density of 250 cells per well in a 6-well plate and permitted to adhere for 12 h. The cells were treated to different concentrations of DH_32 (0, 25, 50, and 100 nM) for a duration of 24 h. Subsequently, the medium containing the drug was aspirated, and fresh complete medium was introduced. The colonies were cultured for a period of 7 days, with the medium being renewed every 2 days. The colonies were washed with PBS, followed by fixation using a solution of methanol and acetic acid (3:1 v/v) for 5 min. Subsequently, they were stained with crystal violet (0.05% w/v in 4% paraformaldehyde) for 30 min. The excess crystal violet stain was washed away with distilled water until a clear background was obtained, and the samples were left to air-dry at room temperature. The colonies were photographed, and the captured images were analyzed using ImageJ software to determine the count of stained colonies. In this experiment, RT served as the positive control.

[3] = tested on: H23 cells; assay: Colony formation assay; conditions: H23, 25 nM, 24 h treatment then 7 days growth
Method: as §1

[4] = tested on: H292 cells; assay: Colony formation assay; conditions: H292, 25 nM, 24 h treatment then 7 days growth
Method: as §1

[5] = tested on: A549, H23, and H292 cells; assay: Immunofluorescence of stem cell markers and transcription factors; conditions: A549, H23, and H292, 50 nM, 24 h
Method: A549, H23, and H292 NSCLC cells were seeded at a concentration of 1 × 10^4 cells per well in 96-well plates. The cells were exposed to different concentrations of DH_32 (0, 25, 50, and 100 nM) for 24 h, after which the medium was removed. Following that, the cells were subjected to fixation with 4% paraformaldehyde for 15 min. The cells were permeabilization with 0.5% Triton-X for 5 min, followed by the blocking of non-specific proteins with 10% FBS in 0.1% Triton-X PBS for 1 h at room temperature. The cells were exposed to a 1:400 dilution of primary antibodies (CD133, CD44, ALDH1A1, OCT4, NANOG, SOX2, and β-catenin) and incubated at 4 °C overnight. On the subsequent day, the cells were treated with a 1:500 dilution of the following secondary antibodies: Alexa Fluor 594-conjugated goat anti-rabbit IgG (H+L) (Invitrogen) and Alexa Fluor 488-conjugated goat anti-mouse IgG (H+L) (Invitrogen). Simultaneously, the localization of nuclei was stained with Hoechst 33342 for 1 h at room temperature. The cells were rinsed with PBS and then covered with 50% glycerol. The images were captured by a fluorescence microscope (Olympus IX 51 with DP70; Olympus America Inc., Center valley, PA, USA). The fluorescence intensity was measured by Image J software. RT acted as the positive control for this experiment.

[6] = tested on: CSC spheroids of A549, H23, and H292 cells; assay: 3D CSC spheroid formation with immunofluorescence; conditions: 50 nM; for levels of CD133, CD44, and OCT4 in CSC spheroids: 24 h, immunofluorescence
Method: A three-dimensional (3D) spheroid was employed to generate the spheroids containing CSC subpopulations from lung cancer cells. For CSC-rich population establishment, the spheroid culture assay used in this study was slightly modified from a previously described method. Lung cancer cells, specifically NSCLC cells (A549, H23, and H292), were seeded onto a 24-well ultra-low attachment plate, with approximately density of 2.5 × 10^3 cells per well in a medium with a 1% FBS and Nutristem mix. The primary spheroids were allowed to form for 7 days. Every 2 days, fresh medium with 1% FBS and Nutristem mix was replenished. On day 7 of primary spheroid culture, primary spheroids were resuspended into single cells using trypsin, and again 2.5 × 10^3 cells/well were seeded into a 24-well ultra-low attachment plate. Secondary spheroids were allowed to form for 10 days. After 10 days, the secondary spheroids were treated with 50 nM concentration DH_32 for 24 h treatment. The spheroids that had undergone treatment were retrieved through centrifugation at 1000× g for 30 s and then rinsed with PBS. The spheroids were fixed with 4% paraformaldehyde in a 50 μL PBS solution for 20 min at room temperature, and then they were made permeable by treating them with 0.1% Triton X in PBS for 5 min at room temperature. The spheroids were exposed to a mixture of 5% FBS and 2% BSA in PBS for 1 h at room temperature to prevent non-specific protein interactions. Subsequently, the spheroids were incubated with primary antibodies (CD133, CD44, and OCT4) at a 1:250 dilution in a 30 μL PBS solution containing 2.5% FBS and 1% BSA, and this incubation took place overnight at 4 °C. On the subsequent day, the spheroids were rinsed with PBS and then exposed to secondary antibodies (Alexa Fluor 594-conjugated goat anti-rabbit IgG (H+L) and Alexa Fluor 488-conjugated goat anti-mouse IgG (H+L)) at a 1:500 dilution in a 30 μL PBS solution containing 2.5% FBS and 1% BSA at room temperature for 1 h 30 min. These spheroids were subjected to staining with Hoechst 33342 (Sigma, St. Louis, MO, USA) at a concentration of 10 μg/mL for a duration of 15 min at room temperature. Subsequently, the fluorescence signals were observed using a fluorescence microscope (Olympus IX 51 with DP70; Olympus America Inc., Center Valley, PA, USA). The intensity of fluorescence was quantified using Image J software. NSCLC spheroids treated with RT at 50 nM and cisplatin at 50 nM served as the positive control.

SMILES	selectivity index (SI) ([1]; BEAS2B cells versus A549)	selectivity index (SI) ([1]; BEAS2B cells versus H23)	selectivity index (SI) ([1]; BEAS2B cells versus H292)	IC50 ([1]; Homo sapiens, BEAS-2B)	inhibition at 0.025 µM ([2]; Homo sapiens, read-out: colony formation inhibition rate)	inhibition at 0.025 µM ([3]; Homo sapiens, NCI-H23, read-out: colony formation inhibition rate)	inhibition at 0.025 µM ([4]; Homo sapiens, NCI-H292, read-out: colony formation inhibition rate)	fluorescence signals of stem cell markers CD133, CD44, and ALDH1A1 [5]	fluorescence signals of stem cell transcription factors OCT4, NANOG, and SOX2 [5]	size of spheroid formations [6]	levels of CD133, CD44, and OCT4 in CSC spheroids [6]	IC50 [1]	colony formation inhibition rate [2]	colony formation inhibition rate [3]	colony formation inhibition rate [4]
COC1=C(C)C(=O)C2=C(C1=O)[C@@H]1CN(Cc3ccc4ccccc4c3)[C@@H](C#N)[C@H](C2)N1C [DH_32, (1R,4R,5S)-9-methoxy-8,11-dimethyl-3-(naphthalen-2-ylmethyl)-7,10-dioxo-1,2,3,4,5,6,7,10-octahydro-1,5-epiminobenzo[d]azocine-4-carbonitrile]	1.25	2.44	3.47	5.06 ± 0.22 µM	90.83 ± 0.1%	78.49 ± 0.08%	79.74 ± 0.14%	approximately 0.5 fold	approximately 0.5 fold	decreased	dramatic decrease	–	–	–	–
CC=C(C)C(=O)OCC1c2c(c(O)c(C)c3c2OCO3)CC2C3C4=C(CC(C(C#N)N12)N3C)C(=O)C(C)=C(OC)C4=O (stereo not shown) [RT, Renieramycin T]	–	–	–	–	–	–	–	–	–	–	lesser effects	1.18 ± 0.02 µM	72.58 ± 0.07%	58.75 ± 0.01%	32.22 ± 0.05%
